From US20200199102A1, “COMPOUNDS THAT PARTICIPATE IN COOPERATIVE BINDING AND USES THEREOF” (Revolution Medicines, Inc., priority 2017, published 2020)
pIC50: −log10 of the molar value. Where a SMILES comes first, the peptide text is derived from it. [ ]: non-standard residue; d: D form. MeBmt = C/C=C/C[C@@H](C)[C@@H](O)[C@H](NC)C(=O)O; NMeY = CN[C@@H](Cc1ccc(O)cc1)C(=O)O; NMeF = CN[C@@H](Cc1ccccc1)C(=O)O; NMeI = CC[C@H](C)[C@H](NC)C(=O)O; NMeT = CN[C@H](C(=O)O)[C@@H](C)O; NMeL = CN[C@@H](CC(C)C)C(=O)O; dNMeV = CN[C@@H](C(=O)O)C(C)C; NMeNle = CCCC[C@H](NC)C(=O)O; Tle = CC(C)(C)[C@H](N)C(=O)O; NMeNva = CCC[C@H](NC)C(=O)O; NMeV = CN[C@H](C(=O)O)C(C)C; NMeA = CN[C@@H](C)C(=O)O; dNMeA = CN[C@H](C)C(=O)O; Abu = CC[C@H](N)C(=O)O; Sar = CNCC(=O)O

Biological target: T1, Cyclophilin A (Homo sapiens, UniProt P62937)
T1 construct: made in house
Assay: AlphaLISA inhibition of binding of biotinylated Cyclosporin A to FLAG tagged Cyclophilin A
Settings: for % signal: AlphaLISA signal; for % signal / % inhibition of CsA binding to Cyclophilin A: test concentration not given; for pIC50: read-out: IC50 value of CsA binding to Cyclophilin A
Summary of the method: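 Inhibition of biotin-CsA binding to FLAG-tagged Cyclophilin A read by AlphaLISA (ex 680, em 615 nm). Working stocks were 6 nM biotinylated CsA and 25 nM FLAG-CypA; beads and compound were combined first for 30 min, then protein added for 60 min, all at room temperature in the dark, with DMSO and cyclosporin A controls.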

T1 sequence (P62937 whole entry, species assumed): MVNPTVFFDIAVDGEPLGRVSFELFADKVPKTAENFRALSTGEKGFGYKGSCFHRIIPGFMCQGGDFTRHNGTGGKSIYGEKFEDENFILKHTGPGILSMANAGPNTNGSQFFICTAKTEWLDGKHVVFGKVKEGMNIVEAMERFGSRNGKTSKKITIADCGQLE

In the case of `C/C=C/C[C@@H](C)[C@@H](O)[C@H]1C(=O)N[C@@H](CC)C(=O)N(C)CC(=O)N(C)[C@@H](C(C)C)C(=O)N[C@@H](C(C)(C)C)C(=O)N(C)[C@@H](C)C(=O)N[C@@H](CC(C)C)C(=O)N[C@H](C)C(=O)N(C)[C@@H](CC(C)C)C(=O)N(C)[C@@H](CC(C)C)C(=O)N(C)[C@@H](C(C)C)C(=O)N1C` [Compound C77] (cyclo([MeBmt][Abu][Sar][NMeV][Tle][NMeA]L[dA][NMeL][NMeL][NMeV])), the “% signal” value was 0.44% and the pIC50 was greater than 5.70.
`C/C=C/C[C@@H](C)[C@@H](O)[C@H]1C(=O)N[C@@H](CC)C(=O)N(C)CC(=O)N(C)[C@@H](CCC)C(=O)N[C@@H](C(C)(C)C)C(=O)N(C)[C@@H](C)C(=O)N[C@@H](CC(C)C)C(=O)N[C@H](C)C(=O)N(C)[C@@H](CC(C)C)C(=O)N(C)[C@@H](CC(C)C)C(=O)N(C)[C@@H](C(C)C)C(=O)N1C` [Compound C78] (cyclo([MeBmt][Abu][Sar][NMeNva][Tle][NMeA]L[dA][NMeL][NMeL][NMeV])) was tested, and the “% signal” value was 1.42%, the pIC50 was greater than 5.70 and the “% inhibition of CsA binding to Cyclophilin A” value (“% inhibition of CsA binding” for short) was 98.58%.
`C/C=C/C[C@@H](C)[C@@H](O)[C@H]1C(=O)N[C@@H](CC)C(=O)N(C)CC(=O)N(C)[C@H](C(C)C)C(=O)N[C@@H](C(C)(C)C)C(=O)N(C)[C@@H](C)C(=O)N[C@@H](CC(C)C)C(=O)N[C@H](C)C(=O)N(C)[C@@H](CC(C)C)C(=O)N(C)[C@@H](CC(C)C)C(=O)N(C)[C@@H](C(C)C)C(=O)N1C` [Compound C79] (cyclo([MeBmt][Abu][Sar][dNMeV][Tle][NMeA]L[dA][NMeL][NMeL][NMeV])) was tested, and the “% signal” value was 3.24%, the pIC50 was greater than 5.70 and the “% inhibition of CsA binding” value was 96.76%.
For `C/C=C/C[C@@H](C)[C@@H](O)[C@H]1C(=O)N[C@@H](CC)C(=O)N(C)CC(=O)N(C)[C@@H](CCCC)C(=O)N[C@@H](C(C)(C)C)C(=O)N(C)[C@@H](C)C(=O)N[C@@H](CC(C)C)C(=O)N[C@H](C)C(=O)N(C)[C@@H](CC(C)C)C(=O)N(C)[C@@H](CC(C)C)C(=O)N(C)[C@@H](C(C)C)C(=O)N1C` [Compound C80] (cyclo([MeBmt][Abu][Sar][NMeNle][Tle][NMeA]L[dA][NMeL][NMeL][NMeV])), the “% signal” value was 3.35%, the pIC50 was greater than 5.70 and the “% inhibition of CsA binding” value was 96.65%.
With `C/C=C/C[C@@H](C)[C@@H](O)[C@H]1C(=O)N[C@@H](CC)C(=O)N(C)CC(=O)N(C)[C@@H]([C@@H](C)CC)C(=O)N[C@@H](C(C)C)C(=O)N(C)[C@@H](C)C(=O)N[C@@H](CC(C)C)C(=O)N[C@H](C)C(=O)N(C)[C@@H](CC(C)C)C(=O)N(C)[C@@H](CC(C)C)C(=O)N(C)[C@@H](C(C)C)C(=O)N1C` [Compound C81] (cyclo([MeBmt][Abu][Sar][NMeI]V[NMeA]L[dA][NMeL][NMeL][NMeV])) the “% signal” value was 0.76%, the pIC50 was greater than 5.70 and the “% inhibition of CsA binding” value was 99.24%.
In the case of `C/C=C/C[C@@H](C)[C@@H](O)[C@H]1C(=O)N[C@@H](CC)C(=O)N(C)CC(=O)N(C)[C@@H](C)C(=O)N[C@@H](C(C)C)C(=O)N(C)[C@@H](C)C(=O)N[C@@H](CC(C)C)C(=O)N[C@H](C)C(=O)N(C)[C@@H](CC(C)C)C(=O)N(C)[C@@H](CC(C)C)C(=O)N(C)[C@@H](C(C)C)C(=O)N1C` [Compound C82] (cyclo([MeBmt][Abu][Sar][NMeA]V[NMeA]L[dA][NMeL][NMeL][NMeV])), the “% signal” value was 0.77%, the pIC50 was greater than 5.70 and the “% inhibition of CsA binding” value was 99.23%.
With `C/C=C/C[C@@H](C)[C@@H](O)[C@H]1C(=O)N[C@@H](CC)C(=O)N(C)CC(=O)N(C)[C@H](C)C(=O)N[C@@H](C(C)C)C(=O)N(C)[C@@H](C)C(=O)N[C@@H](CC(C)C)C(=O)N[C@H](C)C(=O)N(C)[C@@H](CC(C)C)C(=O)N(C)[C@@H](CC(C)C)C(=O)N(C)[C@@H](C(C)C)C(=O)N1C` [Compound C83] (cyclo([MeBmt][Abu][Sar][dNMeA]V[NMeA]L[dA][NMeL][NMeL][NMeV])) the “% signal” value was 0.65% and the pIC50 was greater than 5.70.
For `C/C=C/C[C@@H](C)[C@@H](O)[C@H]1C(=O)N[C@@H](CC)C(=O)N(C)CC(=O)N(C)[C@@H](Cc2ccccc2)C(=O)N[C@@H](C(C)C)C(=O)N(C)[C@@H](C)C(=O)N[C@@H](CC(C)C)C(=O)N[C@H](C)C(=O)N(C)[C@@H](CC(C)C)C(=O)N(C)[C@@H](CC(C)C)C(=O)N(C)[C@@H](C(C)C)C(=O)N1C` [Compound C84] (cyclo([MeBmt][Abu][Sar][NMeF]V[NMeA]L[dA][NMeL][NMeL][NMeV])), the “% signal” value was 6.81%, the pIC50 was greater than 5.70 and the “% inhibition of CsA binding” value was 93.19%.
For `C/C=C/C[C@@H](C)[C@@H](O)[C@H]1C(=O)N[C@@H](CC)C(=O)N(C)CC(=O)N(C)CC(=O)N[C@@H](C(C)C)C(=O)N(C)[C@@H](C)C(=O)N[C@@H](CC(C)C)C(=O)N[C@H](C)C(=O)N(C)[C@@H](CC(C)C)C(=O)N(C)[C@@H](CC(C)C)C(=O)N(C)[C@@H](C(C)C)C(=O)N1C` [Compound C85] (cyclo([MeBmt][Abu][Sar][Sar]V[NMeA]L[dA][NMeL][NMeL][NMeV])), the “% signal” value was 0.87%, the pIC50 was greater than 5.70 and the “% inhibition of CsA binding” value was 99.13%.
`C/C=C/C[C@@H](C)[C@@H](O)[C@H]1C(=O)N[C@@H](CC)C(=O)N(C)CC(=O)N(C)[C@@H](CC(C)C)C(=O)N[C@@H](C(C)C)C(=O)N(C)[C@@H](C)C(=O)N[C@@H](CC(C)C)C(=O)N[C@H](C)C(=O)N(C)[C@@H](CC(C)C)C(=O)N(C)[C@@H](CC(C)C)C(=O)N(C)[C@@H](C(C)C)C(=O)N1C` [Compound C86] (cyclo([MeBmt][Abu][Sar][NMeL]V[NMeA]L[dA][NMeL][NMeL][NMeV])) was tested, and the “% signal” value was 17.23%, the pIC50 was greater than 5.70 and the “% inhibition of CsA binding” value was 82.77%.
In the case of `C/C=C/C[C@@H](C)[C@@H](O)[C@H]1C(=O)N[C@@H](CC)C(=O)N(C)CC(=O)N(C)[C@@H]([C@@H](C)O)C(=O)N[C@@H](C(C)C)C(=O)N(C)[C@@H](C)C(=O)N[C@@H](CC(C)C)C(=O)N[C@H](C)C(=O)N(C)[C@@H](CC(C)C)C(=O)N(C)[C@@H](CC(C)C)C(=O)N(C)[C@@H](C(C)C)C(=O)N1C` [Compound C87] (cyclo([MeBmt][Abu][Sar][NMeT]V[NMeA]L[dA][NMeL][NMeL][NMeV])), the “% signal” value was 4.53%, the pIC50 was greater than 5.70 and the “% inhibition of CsA binding” value was 95.47%.
`C/C=C/C[C@@H](C)[C@@H](O)[C@H]1C(=O)N[C@@H](CC)C(=O)N(C)CC(=O)N(C)[C@@H](Cc2ccc(O)cc2)C(=O)N[C@@H](C(C)C)C(=O)N(C)[C@@H](C)C(=O)N[C@@H](CC(C)C)C(=O)N[C@H](C)C(=O)N(C)[C@@H](CC(C)C)C(=O)N(C)[C@@H](CC(C)C)C(=O)N(C)[C@@H](C(C)C)C(=O)N1C` [Compound C88] (cyclo([MeBmt][Abu][Sar][NMeY]V[NMeA]L[dA][NMeL][NMeL][NMeV])) was tested, and the “% signal” value was 5.94%, the pIC50 was greater than 5.70 and the “% inhibition of CsA binding” value was 94.06%.
`C/C=C/C[C@@H](C)[C@@H](O)[C@H]1C(=O)N[C@@H](CC)C(=O)N(C)CC(=O)N(C)[C@@H](C(C)C)C(=O)N[C@@H](C(C)C)C(=O)N(C)[C@@H](C)C(=O)N[C@@H](CC(C)C)C(=O)N[C@H](C)C(=O)N(C)[C@@H](CC(C)C)C(=O)N(C)[C@@H](CC(C)C)C(=O)N(C)[C@@H](C(C)C)C(=O)N1C` [Compound C89] (cyclo([MeBmt][Abu][Sar][NMeV]V[NMeA]L[dA][NMeL][NMeL][NMeV])) was tested, and the “% signal” value was 3.10%, the pIC50 was greater than 5.70 and the “% inhibition of CsA binding” value was 96.90%.
In the case of `C/C=C/C[C@@H](C)[C@@H](O)[C@H]1C(=O)N[C@@H](CC)C(=O)N(C)CC(=O)N(C)[C@@H](CCC)C(=O)N[C@@H](C(C)C)C(=O)N(C)[C@@H](C)C(=O)N[C@@H](CC(C)C)C(=O)N[C@H](C)C(=O)N(C)[C@@H](CC(C)C)C(=O)N(C)[C@@H](CC(C)C)C(=O)N(C)[C@@H](C(C)C)C(=O)N1C` [Compound C90] (cyclo([Abu][Sar][NMeNva]V[NMeA]L[dA][NMeL][NMeL][NMeV][MeBmt])), the “% signal” value was 6.46%, the pIC50 was greater than 5.70 and the “% inhibition of CsA binding” value was 93.54%.
In the case of `C/C=C/C[C@@H](C)[C@@H](O)[C@H]1C(=O)N[C@@H](CC)C(=O)N(C)CC(=O)N(C)[C@H](C(C)C)C(=O)N[C@@H](C(C)C)C(=O)N(C)[C@@H](C)C(=O)N[C@@H](CC(C)C)C(=O)N[C@H](C)C(=O)N(C)[C@@H](CC(C)C)C(=O)N(C)[C@@H](CC(C)C)C(=O)N(C)[C@@H](C(C)C)C(=O)N1C` [Compound C91] (cyclo([Abu][Sar][dNMeV]V[NMeA]L[dA][NMeL][NMeL][NMeV][MeBmt])), the “% signal” value was 5.17%, the pIC50 was greater than 5.70 and the “% inhibition of CsA binding” value was 94.83%.
In the case of `C/C=C/C[C@@H](C)[C@@H](O)[C@H]1C(=O)N[C@@H](CC)C(=O)N(C)CC(=O)N(C)[C@@H](CCCC)C(=O)N[C@@H](C(C)C)C(=O)N(C)[C@@H](C)C(=O)N[C@@H](CC(C)C)C(=O)N[C@H](C)C(=O)N(C)[C@@H](CC(C)C)C(=O)N(C)[C@@H](CC(C)C)C(=O)N(C)[C@@H](C(C)C)C(=O)N1C` [Compound C92] (cyclo([Abu][Sar][NMeNle]V[NMeA]L[dA][NMeL][NMeL][NMeV][MeBmt])), the “% signal” value was 9.00%, the pIC50 was greater than 5.70 and the “% inhibition of CsA binding” value was 91.00%.
In the case of `C/C=C/C[C@@H](C)[C@@H](O)[C@H]1C(=O)N[C@@H](CC)C(=O)N(C)CC(=O)N(C)[C@@H]([C@@H](C)CC)C(=O)N[C@@H](C(C)C)C(=O)N(C)[C@@H](CC(C)C)C(=O)N[C@@H](CC)C(=O)N[C@H](C)C(=O)N(C)[C@@H](CC(C)C)C(=O)N(C)[C@@H](CC(C)C)C(=O)N(C)[C@@H](C(C)C)C(=O)N1C` [Compound C93] (cyclo([Abu][Sar][NMeI]V[NMeL][Abu][dA][NMeL][NMeL][NMeV][MeBmt])), the “% signal” value was 1.28%, the pIC50 was greater than 5.70 and the “% inhibition of CsA binding” value was 98.72%.
